test system: OVCAR-8 cells; experiment: Drug-siRNA combination screen: 346-compound anticancer library at 100 nM, CCK-8 viability; conditions: not given

| SMILES | Score (sum of observed SD values for 18 genes) |
| --- | --- |
| CNC(=O)c1ccc(N2C(=S)N(c3ccc(C#N)c(C(F)(F)F)c3)C(=O)C2(C)C)cc1F [Enzalutamid] | −1.24 SD |
| Nc1nc(F)nc2c1ncn2[C@@H]1O[C@H](COP(=O)(O)O)[C@@H](O)[C@@H]1O [Fludarabine Phosphate] | −11.05 SD |

same assay, conditions: OVCAR-8; drug 100 nM plus siRNA knockdown of each of 18 genes; distance VAB−VA×VB in SD; single gene contributes at most +5 / −5; negative = synergy, positive = antagonism

| SMILES | Score (sum of observed SD values for 18 genes) |
| --- | --- |
| COc1cc2ncnc(Nc3ccc(F)c(Cl)c3)c2cc1NC(=O)/C=C/CN1CCCCC1 [Dacomitinib] | -68.29 SD |
| CCC(CC)CC1(C(=O)Nc2ccccc2SC(=O)C(C)C)CCCCC1 [Dalcetrapid] | −31.1 SD |
| CO[C@@H](C(=O)N1Cc2n[nH]c(NC(=O)c3ccc(N4CCN(C)CC4)cc3)c2C1)c1ccccc1 [Danusertib] | −2.99 SD |
| CCOc1ccc(Cc2cc([C@@H]3O[C@H](CO)[C@@H](O)[C@H](O)[C@H]3O)ccc2Cl)cc1 [Dapagliflozin] | −15.72 SD |
| CC(=O)OCC(=O)[C@@]1(O)[C@H](C)C[C@H]2[C@@H]3CCC4=CC(=O)C=C[C@]4(C)[C@@]3(F)[C@@H](O)C[C@@]21C [Dexamethasone Acetate] | 6.26 SD |
| C[C@@H]1C[C@H]2[C@@H]3CCC4=CC(=O)C=C[C@]4(C)[C@@]3(F)[C@@H](O)C[C@]2(C)[C@@]1(O)C(=O)CO [Dexamethasone] | −3.28 SD |
| O=S(=O)([O-])CCSSCCS(=O)(=O)[O-].[Na+].[Na+] [Dimesna] | −2.17 SD |
| CCN(CC)C(=S)SSC(=S)N(CC)CC [Disulfiram] | 37.83 SD |
| Cc1ccc(-n2nc(C(C)(C)C)cc2NC(=O)Nc2ccc(OCCN3CCOCC3)c3ccccc23)cc1 [Doramapimod] | -50.99 SD |
| CCN[C@H]1C[C@H](C)S(=O)(=O)c2sc(S(N)(=O)=O)cc21.Cl [Dorzolamide HCI] | 9.66 SD |
| CN1CCN(c2ccc3nc(-c4c(N)c5c(F)cccc5[nH]c4=O)[nH]c3c2)CC1 [Dovitinib] | −22.96 SD |
| C=C1/C(=C\C=C2/CCC[C@]3(C)[C@@H]([C@H](C)/C=C/[C@H](C)C(C)C)CC[C@@H]23)C[C@@H](O)C[C@@H]1O [Doxercalciferol] | −0.53 SD |
| COc1cccc2c1C(=O)c1c(O)c3c(c(O)c1C2=O)C[C@@](O)(C(=O)CO)C[C@@H]3O[C@H]1C[C@H](N)[C@H](O)[C@H](C)O1 [Doxorubicin] | 15.09 SD |
| Cc1cc(Nc2cc(N3CCN(C)CC3)nc(/C=C/c3ccccc3)n2)n[nH]1 [ENMD-2076] | −47.04 SD |
| NC(=O)C1CCCc2c1[nH]c1ccc(Cl)cc21 (stereo not drawn) [EX 527] | −22.45 SD |
| CN(NC(=O)CC(=O)NN(C)C(=S)c1ccccc1)C(=S)c1ccccc1 [Elesclomol] | 11.26 SD |
| Nc1ccccc1NC(=O)c1ccc(CNC(=O)OCc2cccnc2)cc1 [Entinostat] | 12.38 SD |
| Cn1cc(C2=C(c3cn(C4CCN(Cc5ccccn5)CC4)c4ccccc34)C(=O)NC2=O)c2ccccc21 [Enzastaurin] | −6.53 SD |
| O=C(O[C@@H]1Cc2c(O)cc(O)cc2O[C@@H]1c1cc(O)c(O)c(O)c1)c1cc(O)c(O)c(O)c1 [Epigallocatechin gallate] | 3.64 SD |
| C/C(=C\c1csc(C)n1)[C@@H]1C[C@@H]2O[C@@H]2CCC[C@H](C)[C@H](O)[C@@H](C)C(=O)C(C)(C)[C@@H](O)CC(=O)O1 [Epothilone A] | 16.97 SD |
| C/C(=C\c1csc(C)n1)[C@@H]1C[C@@H]2O[C@]2(C)CCC[C@H](C)[C@H](O)[C@@H](C)C(=O)C(C)(C)[C@@H](O)CC(=O)O1 [Epothilone B] | 17.57 SD |
| Cc1c(C(=O)Nc2ccc(N3C[C@@H](C)O[C@@H](C)C3)nc2)cccc1-c1ccc(OC(F)(F)F)cc1 [Erismodegib] | 3.22 SD |
| C[C@]12CC[C@@H]3c4ccc(O)cc4CC[C@H]3[C@@H]1CC[C@@H]2O [Estradiol] | −26.58 SD |
| C[C@]12CC[C@@H]3c4ccc(O)cc4CC[C@H]3[C@@H]1CCC2=O [Estrone] | −21.19 SD |
| O=C1[C@H](CC[C@H](O)c2ccc(F)cc2)[C@@H](c2ccc(O)cc2)N1c1ccc(F)cc1 [Ezetimibe] | −5.31 SD |
| Cc1nc(-c2ccc(OCC(C)C)c(C#N)c2)sc1C(=O)O [Febuxostat] | −18.04 SD |
| Cc1cnc(Nc2ccc(OCCN3CCCC3)cc2)nc1Nc1cccc(S(=O)(=O)NC(C)(C)C)c1 [Fedratinib] | 56.68 SD |
| CN1CC[C@H](c2c(O)cc(O)c3c(=O)cc(-c4ccccc4Cl)oc23)[C@H](O)C1 [Flavopiridol] | −23.63 SD |

| SMILES | Score (sum of observed SD values for 18 genes) |
| --- | --- |
| CC(C)C(=O)Nc1ccc([N+](=O)[O-])c(C(F)(F)F)c1 [Flutamide] | 3.96 SD |
| CC(C)n1c(/C=C/C(O)CC(O)CC(=O)O)c(-c2ccc(F)cc2)c2ccccc21 (stereo not drawn) [Fluvastatin] | −20.51 SD |
| C[C@]12CCC(=O)C(O)=C1CC[C@@H]1[C@@H]2CC[C@]2(C)C(=O)CC[C@@H]12 [Formestane] | −14.97 SD |
| COc1cc(Nc2ncc(F)c(Nc3ccc4c(n3)N(COP(=O)(O)O)C(=O)C(C)(C)O4)n2)cc(OC)c1OC [Fostamatinib] | −4.27 SD |
| O=c1[nH]c(=O)n(C2CCCO2)cc1F (stereo not drawn) [Ftorafur] | −9.75 SD |
| OCCn1cc(-c2ccc3c(c2)CC/C3=N\O)c(-c2ccncc2)n1 [GDC - 0879] | 23.19 SD |
| CS(=O)(=O)N1CCN(Cc2cc3nc(-c4cccc5[nH]ncc45)nc(N4CCOCC4)c3s2)CC1 [GDC-0941] | -58.02 SD |
| C[C@@H](Oc1cc(-n2cnc3ccc(CN4CCN(C)CC4)cc32)sc1C(N)=O)c1ccccc1C(F)(F)F [GSK461364] | 4.65 SD |
| O=C(O)c1ccc(-c2c[nH]c3ncc(-c4ccccc4)cc23)cc1C1CCCC1 [GSK650394] | 12.12 SD |
| CCc1cc(Nc2nccc(-c3c(-c4ccc(OC)c(C(=O)Nc5c(F)cccc5F)c4)nc4ccccn34)n2)c(OC)cc1N1CCC(N2CCN(S(C)(=O)=O)CC2)CC1 [GSK1904529A] | −10.83 SD |
| COc1ncc(-c2ccc3nccc(-c4ccnnc4)c3c2)cc1NS(=O)(=O)c1ccc(F)cc1F [GSK2126458] | −22.4 SD |
| Cl.O=C(O)Cc1cccc(OCCCN(Cc2cccc(C(F)(F)F)c2Cl)CC(c2ccccc2)c2ccccc2)c1 [GW3965 HCI] | −11.35 SD |
| CC(C)c1onc(-c2c(Cl)cccc2Cl)c1COc1ccc(/C=C/c2cccc(C(=O)O)c2)c(Cl)c1 [GW4064] | −12.2 SD |
| CC(C)c1cc(-c2n[nH]c(=O)n2-c2ccc3c(ccn3C)c2)c(O)cc1O [Ganetespib] | 8.4 SD |
| COC1=C2C[C@@H](C)C[C@H](OC)[C@H](O)[C@@H](C)/C=C(\C)[C@H](OC(N)=O)[C@@H](OC)/C=C\C=C(/C)C(=O)NC(=CC1=O)C2=O [Geldanamycin] | 4.47 SD |
| Cl.Nc1ccn([C@@H]2O[C@H](CO)[C@@H](O)C2(F)F)c(=O)n1 [Gemcitibine HCI] | 35.88 SD |
| Nc1ccn([C@@H]2O[C@H](CO)[C@@H](O)C2(F)F)c(=O)n1 [Gemcitibine] | 34.12 SD |
| Cc1cc2c(C(C)C)c(O)c(O)c(C=O)c2c(O)c1-c1c(C)cc2c(C(C)C)c(O)c(O)c(C=O)c2c1O [Gossypol] | −13.34 SD |
| C[C@]12CCC(=O)C=C1CC[C@@H]1[C@@H]2[C@@H](O)C[C@@]2(C)[C@H]1CC[C@]2(O)C(=O)CO [Hydrocortisone] | −21.54 SD |
| Cc1ccccc1-n1c(Cn2cnc3c(N)ncnc32)nc2cccc(C)c2c1=O [IC - 87114] | 14.65 SD |
| CC(C)n1nc(-c2ccc3oc(N)nc3c2)c2c(N)ncnc21 [INK 128] | −44.98 SD |
| C=CC(=O)N1CCC[C@@H](n2nc(-c3ccc(Oc4ccccc4)cc3)c3c(N)ncnc32)C1 [Ibrutinib] | -58.62 SD |
| NC(=O)c1ccc(I)c([N+](=O)[O-])c1 [Iniparib] | −21.58 SD |
| CCc1c2c(nc3ccc(OC(=O)N4CCC(N5CCCCC5)CC4)cc13)-c1cc3c(c(=O)n1C2)COC(=O)[C@]3(O)CC.Cl [Irinotecan HCI] | −7.65 SD |
| CCc1c2c(nc3ccc(OC(=O)N4CCC(N5CCCCC5)CC4)cc13)-c1cc3c(c(=O)n1C2)COC(=O)[C@]3(O)CC [Irinotecan] | −36.08 SD |
| Cc1ccc(C(=O)N(CCCN)[C@@H](c2nc3cc(Cl)ccc3c(=O)n2Cc2ccccc2)C(C)C)cc1 [Ispinesib] | 1.22 SD |
| CCC(C)n1ncn(-c2ccc(N3CCN(c4ccc(OCC5COC(Cn6cncn6)(c6ccc(Cl)cc6Cl)O5)cc4)CC3)cc2)c1=O (stereo not drawn) [Itraconazole] | −13.51 SD |

same assay, conditions: OVCAR-8; drug 100 nM; panel of 18 siRNA knockdowns

| SMILES | synergy / antagonism of drug with gene knockdowns, in words |
| --- | --- |
| Cc1cc(Nc2cc(N3CCN(C)CC3)nc(/C=C/c3ccccc3)n2)n[nH]1 [ENMD-2076] | significant synergy |
| Nc1ccccc1NC(=O)c1ccc(CNC(=O)OCc2cccnc2)cc1 [Entinostat] | frequently antagonized by knockdown of specific genes |
| CS(=O)(=O)N1CCN(Cc2cc3nc(-c4cccc5[nH]ncc45)nc(N4CCOCC4)c3s2)CC1 [GDC-0941] | synergy to the vast majority of genes |

same assay, conditions: OVCAR-8; drug 100 nM; siRNA knockdown

| SMILES | number of genes (of 18) with high synergy with the drug | number of genes (of 18) whose knockdown synergizes with the drug |
| --- | --- | --- |
| COc1cc2ncnc(Nc3ccc(F)c(Cl)c3)c2cc1NC(=O)/C=C/CN1CCCCC1 [Dacomitinib] | 15 genes |  |
| Cc1ccc(-n2nc(C(C)(C)C)cc2NC(=O)Nc2ccc(OCCN3CCOCC3)c3ccccc23)cc1 [Doramapimod] |  | 11 genes |
| CO[C@H]1C[C@@H]2CC[C@@H](C)[C@@](O)(O2)C(=O)C(=O)N2CCCC[C@H]2C(=O)O[C@H]([C@H](C)C[C@@H]2CC[C@@H](OCCO)[C@H](OC)C2)CC(=O)[C@H](C)/C=C(\C)[C@@H](O)[C@@H](OC)C(=O)[C@H](C)C[C@H](C)/C=C/C=C/C=C/1C [Everolimus] |  | 14 genes |

Source: patent US11946094B2, “Combination therapies and methods of use thereof” (Augusta University Research Institute, Inc., priority 2017, dated 2024)
